Structures are written as SMILES. Several values for one entry are separate records, joined by “and”; a condition that tells them apart may be missing. Equal values may be shown once.

The test system of series [1] is HUT-78 cells. The experiment in a line: Uptake in presence and absence of verapamil by flow cytometry. It is filed as cell-based, human. The conditions noted are these: 2 × 10^−7 M selenorhodamine, 1 × 10^−4 M VER, 1 h, mean ± SD. For orientation: In flow cytometry, cells or beads pass a laser one at a time.
Another series deals with CD3+ (resting T cells). Format: cell-based, human.
Series [2] deals with HUT-78 cells. Format: cell-based, human.
Series [3] relates to CD3+ cells of SEB-stimulated PBMCs. Format: cell-based, human.
The test system of the next series is CD3+ (CD25+) cells. Format: cell-based, human.
The conditions of series [4]: in CH3OH; cited from earlier work.
The conditions of series [5]: in CH3OH, cited from earlier work.
For series [6] the following is noted: CH3OH, ± SD; cited from earlier work.
A further series deals with Colo-26 cells. The conditions noted are these: P-gp-expressing Colo-26 cells; cited from earlier work.
For series [7] the following is noted: ± SD; cited from earlier work.
The target of a further series is P-gp (Homo sapiens, UniProt P08183). Briefly: P-gp transport studies across MDCKII-MDR1 monolayers.
Sequence of P-gp (P08183 whole entry): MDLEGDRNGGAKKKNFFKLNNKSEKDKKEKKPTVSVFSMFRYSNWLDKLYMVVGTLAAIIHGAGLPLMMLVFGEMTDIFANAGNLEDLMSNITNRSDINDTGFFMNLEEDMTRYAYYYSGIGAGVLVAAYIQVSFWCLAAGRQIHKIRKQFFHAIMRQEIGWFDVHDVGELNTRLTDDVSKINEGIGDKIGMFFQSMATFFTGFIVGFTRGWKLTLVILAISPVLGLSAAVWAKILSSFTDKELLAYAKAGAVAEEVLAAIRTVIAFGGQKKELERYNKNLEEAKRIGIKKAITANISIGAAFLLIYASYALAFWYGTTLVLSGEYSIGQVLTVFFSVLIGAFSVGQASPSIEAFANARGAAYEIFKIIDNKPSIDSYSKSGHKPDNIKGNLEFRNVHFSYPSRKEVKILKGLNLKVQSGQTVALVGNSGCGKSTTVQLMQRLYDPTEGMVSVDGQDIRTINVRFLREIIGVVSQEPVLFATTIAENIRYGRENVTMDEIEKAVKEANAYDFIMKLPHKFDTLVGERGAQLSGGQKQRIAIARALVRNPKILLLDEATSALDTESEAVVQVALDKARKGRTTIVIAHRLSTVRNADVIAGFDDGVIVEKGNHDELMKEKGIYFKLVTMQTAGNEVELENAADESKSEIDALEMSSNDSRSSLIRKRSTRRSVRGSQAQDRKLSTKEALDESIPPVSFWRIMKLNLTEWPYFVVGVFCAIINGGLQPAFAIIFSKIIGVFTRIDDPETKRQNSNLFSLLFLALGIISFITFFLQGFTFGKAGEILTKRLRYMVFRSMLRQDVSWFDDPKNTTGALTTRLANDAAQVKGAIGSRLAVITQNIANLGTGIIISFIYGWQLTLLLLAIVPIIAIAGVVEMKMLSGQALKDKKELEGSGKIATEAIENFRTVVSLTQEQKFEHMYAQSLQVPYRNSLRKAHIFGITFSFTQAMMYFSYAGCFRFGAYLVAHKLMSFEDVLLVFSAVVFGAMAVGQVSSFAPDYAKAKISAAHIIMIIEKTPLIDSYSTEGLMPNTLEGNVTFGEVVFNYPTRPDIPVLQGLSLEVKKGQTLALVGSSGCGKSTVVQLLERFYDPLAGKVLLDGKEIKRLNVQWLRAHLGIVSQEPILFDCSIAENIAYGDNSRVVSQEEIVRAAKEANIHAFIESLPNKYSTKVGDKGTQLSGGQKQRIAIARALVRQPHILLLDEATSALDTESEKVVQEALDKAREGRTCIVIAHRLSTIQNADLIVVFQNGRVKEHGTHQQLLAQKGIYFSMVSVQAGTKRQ
[8] abbreviates: no inhibitor, 5 × 10^−6 M dye, 4.3 mg mL^−1 BSA, ± SD.
Setting [9] is: with 5 × 10^−6 M inhibitor 15, 5 × 10^−6 M dye, 4.3 mg mL^−1 BSA, ± SD.

With `O=C(c1ccc(C2=c3cc4c5c(c3[Se]c3c2cc2c6c3CCCN6CCC2)CCC[N+]=5CCC4)s1)N1CCCCC1.[Cl-]` [Compd 6, 9-(5-(piperidylcarbamoyl)thiophen-2-yl)-2,3,6,7,12,13,16,17-octa-hydro[1H,5H,11H,15H]-10-selenoxantheno-[2,3,4-ij:5,6,7-i′j′]diquinolizin-18-ium chloride], the “ratio of uptake +VER/−VER” value in the series with HUT-78 cells [1] stood at 1.13 ± 0.08. The “% survival of the CD3+, CD4+, and CD8+ populations” value in the series with CD3+ (resting T cells) is on record as 62–78%. In the series on HUT-78 cells [2], the “% of HUT-78 cells to which the photosensitizer was phototoxic” value was > 90% and 91%; the “% survival HUT-78” value is listed as 9.3 ± 2.7%. Moreover, the “% survival CD3+” value in [3] is on record as 65%. Besides, in the series with CD3+ (CD25+) cells, the “% survival CD3+ (CD25+)” value worked out at 37.4 ± 3.2%. Also, in [4], the “Absorption maximum λmax” value was 626 nm and the “Molar extinction coefficient ε” value is 135000 M⁻¹ cm⁻¹. The “Quantum yield for fluorescence ΦFL” value in series [5] (excitation at 532 nm, ± SD) is reported as 0.012 ± 0.001. The “Fluorescence emission maximum λFL” value in series [5] is given as 660 nm. In [6], the “Quantum yield for the generation of singlet oxygen Φ(1O2)” value is recorded as 0.64 ± 0.03. The “ratio of uptake +VER/−VER” value in the series with Colo-26 cells is recorded as 7.6. The “n-octanol/water partition coefficient log P” value in series [7] was 3.71 ± 0.08. The PPassive at P-gp (mean of PAB and PBA in the fully inhibited system) is ~2 ×10^−9 m s^−1. Also, at P-gp (no inhibitor), the PBA/PAB was determined as 37. Also, on P-gp (setting [8]), the “PAB, transport in absorptive direction” value was 2.1 ± 0.1 ×10^−9 m s^−1 and the “PBA, transport in secretory direction” value is 78 ×10^−9 m s^−1. At P-gp (setting [9]), the “PAB, transport in absorptive direction (+inh)” value was 0.24 ± 0.1 ×10^−9 m s^−1 and the “PBA, transport in secretory direction (+inh)” value is listed as 4.8 ± 0.1 ×10^−9 m s^−1.

The record behind these values is article PMC5815522 (Bioorganic & medicinal chemistry, 2016).
